From US20230085307A1, “PYRIDAZINONE COMPOUND AND HERBICIDE” (NISSAN CHEMICAL CORPORATION, priority 2019, published 2023)

What was measured:
[1] = system: barnyard grass; experiment: Test Example 5: herbicidal effect by foliage application, plastic box (Table 20, symbol H); format: in vivo, barnyard grass (Echinochloa crus-galli); conditions: foliage application, 320 g/ha, three weeks after application
Procedure, shortened: (§1)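 Sow seeds spot-wise in sterilized diluvial soil; cover with ~1.5 cm soil. Grow 14 days in greenhouse, 25° C. to 30° C. Spray foliage with emulsion diluted to predetermined amount. Rate effect after 3 weeks.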

[2] = system: redroot pigweed; experiment: Test Example 4: herbicidal effect by soil treatment (Table 19, symbol N); format: in vivo, redroot pigweed (Amaranthus retroflexus); conditions: amount of applied herbicide 320 g/ha
Procedure, shortened: (§2)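 Soil-surface application: an emulsion agent diluted with water to the predetermined dose is sprayed uniformly over seeds lying under roughly 1.5 cm of sterilized diluvial soil. Boxes stay in a greenhouse at 25° C. to 30° C. Three weeks later, each species is graded on previously defined criteria.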

[3] = system: green foxtail; experiment: Test Example 5: herbicidal effect by foliage application, plastic box (Table 20, symbol G); format: in vivo, green foxtail (Setaria viridis); conditions: foliage application, 320 g/ha, three weeks after application
Procedure, shortened: as §1

[4] = system: Japanese bulrush; experiment: Test Example 1: herbicidal activity, application before weed generation under submerged conditions (Table 16, symbol B); format: in vivo, Japanese bulrush (Schoenoplectus juncoides); conditions: amount of applied herbicide 320 g/ha
Procedure, shortened: (§3)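 Alluvial soil was flooded to 4 cm depth, weed seeds were sown mixed and 2.5-leaf rice seedlings were transplanted. On sowing day, the compound's emulsion, diluted in water to a set dose, was applied to the water surface. Plants grew at 25–30 °C and were scored 0–5 after three weeks.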

[5] = system: oval-leafed pondweed; experiment: Test Example 1: herbicidal activity, application before weed generation under submerged conditions (Table 16, symbol C); format: in vivo, oval-leafed pondweed (Monochoria vaginalis); conditions: amount of applied herbicide 320 g/ha
Excerpt: [Test Example 1] Herbicidal Activity Test by Application before Weed Generation under Submerged Conditions After alluvial soil was placed into 1/10000 are of Wagner pot, water was poured and mixed to form a submerged condition having a water depth of 4 cm. Seeds of late watergrass, Japanese bulrush, and oval-leafed pondweed were sowed in a mixed manner in the aforementioned pot, and then 2.5 leaf stage rice plant seedlings were transplanted thereto. On the day of sowing seeds, the emulsion agent of the compound of the present invention prepared according to Formulation Example 2 was diluted with water so as to achieve a predetermined herbicide amount, and the diluted emulsion agent was applied to the surface of the water. The pot was placed in a greenhouse at 25° C. to 30° C. for growth of the plants. Three weeks after the herbicide application, the effect of the herbicide on each plant was evaluated according to the following criteria. Evaluation Criteria 5: Herbicidal rate of 90% or more (almost completely withered) 4: Herbicidal rate of 70% or more and less than 90% 3: Herbicidal rate of 40% or more and less than 70% 2: Herbicidal rate of 20% or more and less than 40% 1: Herbicidal rate of 5% or more and less than 20% 0: Herbicidal rate of 5% or less (almost no effect)

[6] = system: barnyard grass; experiment: Test Example 3: herbicidal effect by foliage application, Wagner pot (Table 18, symbol H); format: in vivo, barnyard grass (Echinochloa crus-galli); conditions: amount of applied herbicide 320 g/ha
Procedure, shortened: (§4)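 Plants were sown in alluvial soil held under 0.1–0.5 cm standing water and grown 14 days in a greenhouse at 25–30 °C. An emulsifiable formulation, water-diluted to the set dose, was then sprayed onto the foliage, and effects were scored three weeks later using previously defined criteria.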

[7] = system: lambsquarters; experiment: Test Example 4: herbicidal effect by soil treatment (Table 19, symbol O); format: in vivo, lambsquarters (Chenopodium album); conditions: amount of applied herbicide 320 g/ha
Procedure, shortened: as §2

[8] = system: velvetleaf; experiment: Test Example 4: herbicidal effect by soil treatment (Table 19, symbol M); format: in vivo, velvetleaf (Abutilon theophrasti); conditions: amount of applied herbicide 320 g/ha
Procedure, shortened: as §2

[9] = system: barnyard grass; experiment: Test Example 4: herbicidal effect by soil treatment (Table 19, symbol H); format: in vivo, barnyard grass (Echinochloa crus-galli); conditions: amount of applied herbicide 320 g/ha
Procedure, shortened: as §2

[10] = system: lambsquarters; experiment: Test Example 5: herbicidal effect by foliage application, plastic box (Table 20, symbol O); format: in vivo, lambsquarters (Chenopodium album); conditions: foliage application, 320 g/ha, three weeks after application
Procedure, shortened: as §1

[11] = system: velvetleaf; experiment: Test Example 5: herbicidal effect by foliage application, plastic box (Table 20, symbol M); format: in vivo, velvetleaf (Abutilon theophrasti); conditions: foliage application, 320 g/ha, three weeks after application
Procedure, shortened: as §1

[12] = system: Chinese sprangletop; experiment: Test Example 3: herbicidal effect by foliage application, Wagner pot (Table 18, symbol D); format: in vivo, chinese sprangletop (Leptochloa chinensis); conditions: amount of applied herbicide 320 g/ha
Procedure, shortened: as §4

[13] = system: redroot pigweed; experiment: Test Example 5: herbicidal effect by foliage application, plastic box (Table 20, symbol N); format: in vivo, redroot pigweed (Amaranthus retroflexus); conditions: foliage application, 320 g/ha, three weeks after application
Procedure, shortened: as §1

[14] = system: southern crabgrass; experiment: Test Example 5: herbicidal effect by foliage application, plastic box (Table 20, symbol F); format: in vivo, southern crabgrass (Digitaria ciliaris); conditions: foliage application, 320 g/ha, three weeks after application
Procedure, shortened: as §1

[15] = system: rice flat sedge; experiment: Test Example 3: herbicidal effect by foliage application, Wagner pot (Table 18, symbol E); format: in vivo, rice flat sedge (Cyperus iria); conditions: amount of applied herbicide 320 g/ha
Procedure, shortened: as §4

[16] = system: southern crabgrass; experiment: Test Example 4: herbicidal effect by soil treatment (Table 19, symbol F); format: in vivo, southern crabgrass (Digitaria ciliaris); conditions: amount of applied herbicide 320 g/ha
Procedure, shortened: as §2

[17] = system: late watergrass; experiment: Test Example 1: herbicidal activity, application before weed generation under submerged conditions (Table 16, symbol A); format: in vivo, late watergrass (Echinochloa oryzicola); conditions: amount of applied herbicide 320 g/ha
Procedure, shortened: as §3

[18] = system: green foxtail; experiment: Test Example 4: herbicidal effect by soil treatment (Table 19, symbol G); format: in vivo, green foxtail (Setaria viridis); conditions: amount of applied herbicide 320 g/ha
Procedure, shortened: as §2

Compound | H: barnyard grass, herbicidal effect grade [1] | herbicidal effect, N: redroot pigweed [2] | G: green foxtail, herbicidal effect grade [3] | Herbicidal effect, B: Japanese bulrush [4] | Herbicidal effect, C: oval-leafed pondweed [5] | herbicidal effect on H: barnyard grass [6] | herbicidal effect, O: lambsquarters [7] | herbicidal effect, M: velvetleaf [8] | herbicidal effect, H: barnyard grass [9] | O: lambsquarters, herbicidal effect grade [10] | M: velvetleaf, herbicidal effect grade [11] | herbicidal effect on D: Chinese sprangletop [12] | N: redroot pigweed, herbicidal effect grade [13] | F: southern crabgrass, herbicidal effect grade [14] | herbicidal effect on E: rice flat sedge [15] | herbicidal effect, F: southern crabgrass [16] | Herbicidal effect, A: late watergrass [17] | herbicidal effect, G: green foxtail [18]
Cc1nn(C)c(=O)c(-c2c(-c3ccc(OCCS(C)(=O)=O)cc3)sc3ccc(F)cc23)c1O [2-444] | 5 (Herbicidal rate of 90% or more (almost completely withered)) | 5 (Herbicidal rate of 90% or more (almost completely withered)) | 5 (Herbicidal rate of 90% or more (almost completely withered)) | 0 (Herbicidal rate of 5% or less (almost no effect)) | 0 (Herbicidal rate of 5% or less (almost no effect)) | 5 (Herbicidal rate of 90% or more (almost completely withered)) | 5 (Herbicidal rate of 90% or more (almost completely withered)) | 3 (Herbicidal rate of 40% or more and less than 70%) | 4 (Herbicidal rate of 70% or more and less than 90%) | 5 (Herbicidal rate of 90% or more (almost completely withered)) | 5 (Herbicidal rate of 90% or more (almost completely withered)) | 4 (Herbicidal rate of 70% or more and less than 90%) | 5 (Herbicidal rate of 90% or more (almost completely withered)) | 5 (Herbicidal rate of 90% or more (almost completely withered)) | 5 (Herbicidal rate of 90% or more (almost completely withered)) | 5 (Herbicidal rate of 90% or more (almost completely withered)) | 3 (Herbicidal rate of 40% or more and less than 70%) | 5 (Herbicidal rate of 90% or more (almost completely withered))
CON=C(C)CSc1ccc(-c2sc3ccc(F)cc3c2-c2c(O)c(C)nn(C)c2=O)cc1 [2-451] | 5 (Herbicidal rate of 90% or more (almost completely withered)) | 5 (Herbicidal rate of 90% or more (almost completely withered)) | 5 (Herbicidal rate of 90% or more (almost completely withered)) | 0 (Herbicidal rate of 5% or less (almost no effect)) | 0 (Herbicidal rate of 5% or less (almost no effect)) | 5 (Herbicidal rate of 90% or more (almost completely withered)) | 4 (Herbicidal rate of 70% or more and less than 90%) | 3 (Herbicidal rate of 40% or more and less than 70%) | 0 (Herbicidal rate of 5% or less (almost no effect)) | 5 (Herbicidal rate of 90% or more (almost completely withered)) | 5 (Herbicidal rate of 90% or more (almost completely withered)) | 3 (Herbicidal rate of 40% or more and less than 70%) | 5 (Herbicidal rate of 90% or more (almost completely withered)) | 4 (Herbicidal rate of 70% or more and less than 90%) | 5 (Herbicidal rate of 90% or more (almost completely withered)) | 0 (Herbicidal rate of 5% or less (almost no effect)) | 2 (Herbicidal rate of 20% or more and less than 40%) | 0 (Herbicidal rate of 5% or less (almost no effect))
